Biological target: T1, Vitronectin receptor αVβ3 (Homo sapiens, UniProt P05106+P06756)
T1 construct: expressed in transfected cells; host or cells: 512P5 cells (plasma membrane preparation)
Assay: Vitronectin Receptor αVβ3 Binding Assay
Conditions: read-out: VnR (IC50μM)

T1 sequence (P06756 31-889 limits assumed): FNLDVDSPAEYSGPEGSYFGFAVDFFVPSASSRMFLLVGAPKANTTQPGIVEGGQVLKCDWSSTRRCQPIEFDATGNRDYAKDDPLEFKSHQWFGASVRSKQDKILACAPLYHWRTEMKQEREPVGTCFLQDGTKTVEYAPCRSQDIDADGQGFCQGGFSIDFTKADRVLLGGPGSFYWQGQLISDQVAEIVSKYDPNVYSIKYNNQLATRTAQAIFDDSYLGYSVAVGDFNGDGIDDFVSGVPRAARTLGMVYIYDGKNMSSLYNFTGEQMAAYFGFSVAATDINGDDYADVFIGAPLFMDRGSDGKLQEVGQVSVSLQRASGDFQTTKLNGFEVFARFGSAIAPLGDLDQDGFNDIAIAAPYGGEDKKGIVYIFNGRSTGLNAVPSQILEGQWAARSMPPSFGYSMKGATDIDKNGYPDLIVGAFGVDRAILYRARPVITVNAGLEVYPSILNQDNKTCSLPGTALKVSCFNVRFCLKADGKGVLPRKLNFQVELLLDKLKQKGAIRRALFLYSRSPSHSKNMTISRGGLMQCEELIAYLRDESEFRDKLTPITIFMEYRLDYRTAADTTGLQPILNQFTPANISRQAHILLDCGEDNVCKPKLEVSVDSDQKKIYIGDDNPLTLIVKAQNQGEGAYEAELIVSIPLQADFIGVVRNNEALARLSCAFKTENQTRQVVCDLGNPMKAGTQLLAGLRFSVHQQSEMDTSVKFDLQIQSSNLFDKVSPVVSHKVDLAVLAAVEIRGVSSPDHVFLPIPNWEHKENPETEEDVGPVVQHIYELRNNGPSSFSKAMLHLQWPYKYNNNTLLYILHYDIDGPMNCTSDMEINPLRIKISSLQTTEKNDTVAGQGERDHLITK
T1 sequence (P06756 891-1048 partner limits assumed): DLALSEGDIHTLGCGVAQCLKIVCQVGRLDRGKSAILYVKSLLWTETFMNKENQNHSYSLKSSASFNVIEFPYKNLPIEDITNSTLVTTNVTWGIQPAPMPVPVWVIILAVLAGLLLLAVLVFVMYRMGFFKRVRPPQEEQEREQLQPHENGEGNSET
T1 sequence (P05106 27-788): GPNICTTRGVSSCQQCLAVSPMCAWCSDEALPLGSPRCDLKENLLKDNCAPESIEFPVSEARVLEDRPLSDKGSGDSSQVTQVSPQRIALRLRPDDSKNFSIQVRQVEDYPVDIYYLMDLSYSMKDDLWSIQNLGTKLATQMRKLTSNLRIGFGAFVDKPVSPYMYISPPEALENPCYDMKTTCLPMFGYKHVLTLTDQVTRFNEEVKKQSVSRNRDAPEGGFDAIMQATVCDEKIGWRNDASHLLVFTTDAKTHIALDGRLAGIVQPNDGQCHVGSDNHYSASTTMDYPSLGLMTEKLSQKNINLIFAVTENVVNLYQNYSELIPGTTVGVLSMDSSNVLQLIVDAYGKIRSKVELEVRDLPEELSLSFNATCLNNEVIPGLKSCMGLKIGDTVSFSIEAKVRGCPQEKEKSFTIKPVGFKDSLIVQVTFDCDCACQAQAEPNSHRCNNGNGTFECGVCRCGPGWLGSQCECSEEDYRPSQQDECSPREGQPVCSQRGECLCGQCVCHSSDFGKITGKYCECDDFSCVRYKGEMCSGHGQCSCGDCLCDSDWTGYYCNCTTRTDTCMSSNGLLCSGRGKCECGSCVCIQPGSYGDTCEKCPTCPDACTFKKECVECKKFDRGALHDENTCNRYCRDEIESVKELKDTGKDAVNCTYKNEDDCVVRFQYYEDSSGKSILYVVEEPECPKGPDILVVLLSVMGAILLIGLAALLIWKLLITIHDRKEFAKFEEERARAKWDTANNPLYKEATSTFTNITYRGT

IC50 [µM] | Compound
> 1 | CCCC(=O)N[C@@H](CNC(=O)c1ccc(OCCNC2=NCCN2)cc1O)C(=O)O [Example 119, (2S)-2-(butyrylamino)-3-({4-[2-(4,5-dihydro-1H-imidazol-2-ylamino)ethoxy]-2-hydroxybenzoyl}amino)propanoic acid]
> 1 | CC(C)(C)CC(=O)N[C@@H](CNC(=O)c1ccc(OCCNC2=NCCN2)cc1O)C(=O)O [Example 122, (2S)-3-({4-[2-(4,5-dihydro-1H-imidazol-2-ylamino)ethoxy]-2-hydroxybenzoyl}-amino)-2-[(3,3-dimethylbutanoyl)amino]propanoic acid]
0.405 | O=C(NC[C@H](NC(=O)c1ccccc1Cl)C(=O)O)c1ccc(OCCNC2=NCCN2)cc1O [Example 131, (2S)-2-[(2-chlorobenzoyl)amino]-3-({4-[2-(4,5-dihydro-1H-imidazol-2-ylamino)ethoxy]-2-hydroxybenzoyl}amino)propanoic acid]
0.963 | Cc1ccccc1C(=O)N[C@@H](CNC(=O)c1ccc(OCCNC2=NCCN2)cc1O)C(=O)O [Example 132, (2S)-3-({4-[2-(4,5-dihydro-1H-imidazol-2-ylamino)ethoxy]-2-hydroxybenzoyl}amino)-2-[(2-methylbenzoyl)amino]propanoic acid]
> 1 | COc1ccccc1C(=O)N[C@@H](CNC(=O)c1ccc(OCCNC2=NCCN2)cc1O)C(=O)O [Example 133, (2S)-3-({4-[2-(4,5-dihydro-1H-imidazol-2-ylamino)ethoxy]-2-hydroxybenzoyl}-amino)-2-[(2-methoxybenzoyl)amino]propanoic acid]
> 1 | O=C(N[C@@H](CNC(=O)c1ccc(OCCNC2=NCCN2)cc1O)C(=O)O)c1ccc(Cl)cc1 [Example 134, (2S)-2-[(4-chlorobenzoyl)amino]-3-({4-[2-(4,5-dihydro-1H-imidazol-2-ylamino) -ethoxy]-2-hydroxybenzoyl}amino)propanoic acid]
> 1 | Cc1ccc(C(=O)N[C@@H](CNC(=O)c2ccc(OCCNC3=NCCN3)cc2O)C(=O)O)cc1 [Example 135, (2S)-3-({4-[2-(4,5-dihydro-1H-imidazol-2-ylamino)ethoxy]-2-hydroxybenzoyl}-amino)-2-[(4-methylbenzoyl)amino]propanoic acid]
> 1 | COc1ccc(C(=O)N[C@@H](CNC(=O)c2ccc(OCCNC3=NCCN3)cc2O)C(=O)O)cc1 [Example 136, (2S)-3-({4-[2-(4,5-dihydro-1H-imidazol-2-ylamino)ethoxy]-2-hydroxybenzoyl}-amino)-2-[(4-methoxybenzoyl)amino]propanoic acid]
> 1 | Cc1cc(C(=O)N[C@@H](CNC(=O)c2ccc(OCCNC3=NCCN3)cc2O)C(=O)O)c(C)o1 [Example 137, (2S)-3-({4-[2-(4,5-dihydro-1H-imidazol-2-ylamino)ethoxy]-2-hydroxybenzoyl}-amino)-2-[(2,5-dimethyl-3-furoyl)amino]propanoic acid]
0.361 | O=C(NC[C@H](NC(=O)c1ccccc1Br)C(=O)O)c1ccc(OCCNC2=NCCN2)cc1O [Example 138]
0.0978 | Cc1cccc(C(=O)N[C@@H](CNC(=O)c2ccc(OCCNC3=NCCN3)cc2O)C(=O)O)c1C [Example 140, (2S)-3-({4-[2-(4,5-dihydro-1H-imidazol-2-ylamino)ethoxy]-2-hydroxybenzoyl}-amino)-2-[(2,3-dimethylbenzoyl)amino]propanoic acid]
> 1 | O=C(N[C@@H](CNC(=O)c1ccc(OCCNC2=NCCN2)cc1O)C(=O)O)c1cccc(Cl)c1 [Example 141, (2S)-2-[(3-chlorobenzoyl)amino]-3-({4-[2-(4,5-dihydro-1H-imidazol-2-ylamino)-ethoxy]-2-hydroxybenzoyl}amino)propanoic acid]

Second part, the molecule before the results:

Compound | IC50 [µM]
CCCCCC(=O)N[C@@H](CNC(=O)c1ccc(OCCNC2=NCCN2)cc1O)C(=O)O [Example 120, (2S)-3-({4-[2-(4,5-dihydro-1H-imidazol-2-ylamino)ethoxy]-2-hydroxybenzoyl}-amino)-2-(hexanoylamino)propanoic acid] | > 1
CCCCC(=O)N[C@@H](CNC(=O)c1ccc(OCCNC2=NCCN2)cc1O)C(=O)O [Example 121, (2S)-3-({4-[2-(4,5-dihydro-1H-imidazol-2-ylamino)ethoxy]-2-hydroxybenzoyl}-amino)-2-(pentanoylamino)propanoic acid] | > 1
CC1(C)C(C(=O)N[C@@H](CNC(=O)c2ccc(OCCNC3=NCCN3)cc2O)C(=O)O)C1(C)C [Example 123, (2S)-3-({4-[2-(4,5-dihydro-1H-imidazol-2-ylamino)ethoxy]-2-hydroxybenzoyl}-amino)-2-{[(2,2,3,3-tetramethylcyclopropyl)carbonyl]amino}propanoic acid] | > 1
O=C(CC12CC3CC(CC(C3)C1)C2)N[C@@H](CNC(=O)c1ccc(OCCNC2=NCCN2)cc1O)C(=O)O [Example 124, (2S)-2-{[2-(1-adamantyl)acetyl]amino}-3-({4-[2-(4,5-dihydro-1H-imidazol-2-ylamino)ethoxy]-2-hydroxybenzoyl}amino)propanoic acid] | 0.734
C#CCCC(=O)N[C@@H](CNC(=O)c1ccc(OCCNC2=NCCN2)cc1O)C(=O)O [Example 125, (2S)-3-({4-[2-(4,5-dihydro-1H-imidazol-2-ylamino)ethoxy]-2-hydroxybenzoyl}-amino)-2-(pent-4-ynoylamino)propanoic acid] | > 1
O=C(NC[C@H](NC(=O)C1CCCCC1)C(=O)O)c1ccc(OCCNC2=NCCN2)cc1O [Example 126, (2S)-2-[(cyclohexylcarbonyl)amino]-3-({4-[2-(4,5-dihydro-1H-imidazol-2-ylamino)ethoxy]-2-hydroxybenzoyl}amino)propanoic acid] | > 1
O=C(Cc1ccccc1)N[C@@H](CNC(=O)c1ccc(OCCNC2=NCCN2)cc1O)C(=O)O [Example 127, (2S)-3-({4-[2-(4,5-dihydro-1H-imidazol-2-ylamino)ethoxy]-2-hydroxybenzoyl}-amino)-2-[(2-phenylacetyl)amino]propanoic acid] | 0.955
O=C(CCc1ccccc1)N[C@@H](CNC(=O)c1ccc(OCCNC2=NCCN2)cc1O)C(=O)O [Example 128, (2S)-3-({4-[2-(4,5-dihydro-1H-imidazol-2-ylamino)ethoxy]-2-hydroxybenzoyl}-amino)-2-[(3-phenylpropanoyl)amino]propanoic acid] | > 1
O=C(CC1CCCCC1)N[C@@H](CNC(=O)c1ccc(OCCNC2=NCCN2)cc1O)C(=O)O [Example 129, (2S)-2-[(2-cyclohexylacetyl)amino]-3-({4-[2-(4,5-dihydro-1H-imidazol-2-ylamino)ethoxy]-2-hydroxybenzoyl}amino)propanoic acid] | 0.635
O=C(/C=C/c1ccccc1)N[C@@H](CNC(=O)c1ccc(OCCNC2=NCCN2)cc1O)C(=O)O [Example 130, (2S)-3-({4-[2-(4,5-dihydro-1H-imidazol-2-ylamino)ethoxy]-2-hydroxybenzoyl}-amino)-2-{[(E)-3-phenylprop-2-enoyl]amino}propanoic acid] | > 1
O=C(N[C@@H](CNC(=O)c1ccc(OCCNC2=NCCN2)cc1O)C(=O)O)c1ccc(Br)cc1 [Example 139, (2S)-2-[(4-bromobenzoyl)amino]-3-({4-[2-(4,5-dihydro-1H-imidazol-2-ylamino)ethoxy]-2-hydroxybenzoyl}amino)propanoic acid] | > 1

Reference: US20030186967A1, “Acylresorcinol derivatives are selective vitronectin receptor inhibitors” (American Home Products Corporation, priority 1998, published 2003)
